Legend:
[1] = AUC (0 to infinity) in epileptic patient (6 patients) at 800 mg, iv administered as single dose by gas liquid chromatographic method; type: ADME, organism-based; parameters: dose 800 mg, route intravenous, time infinity; settings: human, in vivo
[2] = Initial plasma concentration in epileptic patient (6 patients) at 800 mg, iv administered as single dose by gas liquid chromatographic method; type: ADME, organism-based; settings: human
[3] = Apparent volume of distribution in epileptic patient (6 patients) at 800 mg, iv administered as single dose by gas liquid chromatographic method; type: ADME, organism-based; settings: human, in vivo, read-out: Vd(app)
[4] = Volume of distribution (area) in healthy volunteer (6 volunteers) at 800 mg, iv administered as single dose by gas liquid chromatographic method; type: ADME, organism-based; settings: human, in vivo
[5] = Total clearance in epileptic patient (6 patients) at 800 mg, iv administered as single dose by gas liquid chromatographic method; type: ADME, organism-based; settings: human, in vivo
[6] = Tmax in epileptic patient (6 patients) at 800 mg, po administered as single dose by gas liquid chromatographic method; type: ADME, organism-based; settings: human, in vivo
[7] = AUC (0 to infinity) in epileptic patient (6 patients) at 800 mg, po administered as single dose by gas liquid chromatographic method; type: ADME, organism-based; parameters: dose 800 mg, route oral, time infinity; settings: human, in vivo
Homo sapiens [8] = test: Volume of distribution (area) in epileptic patient (6 patients) at 800 mg, po administered as single dose by gas liquid chromatographic method; type: ADME, organism-based; settings: in vivo
[9] = Half life in healthy volunteer (6 volunteers) at 800 mg, iv administered as single dose by gas liquid chromatographic method; type: ADME, organism-based; settings: human, in vivo
Homo sapiens [10] = test: Extrapolated volume of distribution in epileptic patient (6 patients) at 800 mg, po administered as single dose by gas liquid chromatographic method; type: ADME, organism-based; settings: in vivo
[11] = AUC (0 to 48 hrs) in epileptic patient (6 patients) at 800 mg, iv administered as single dose by gas liquid chromatographic method; type: ADME, organism-based; parameters: dose 800 mg, time < 48 hr, route intravenous; settings: human, in vivo
[12] = Elimination rate constant in epileptic patient (6 patients) at 800 mg, iv administered as single dose by gas liquid chromatographic method; type: ADME, organism-based; settings: human, in vivo
[13] = Tmax in healthy volunteer (6 volunteers) at 800 mg, po administered as single dose by gas liquid chromatographic method; type: ADME, organism-based; settings: human, in vivo
[14] = Oral bioavailability in epileptic patient (6 patients) at 800 mg administered as single dose by gas liquid chromatographic method; type: ADME, organism-based; settings: human, in vivo
[15] = Extrapolated volume of distribution in epileptic patient (6 patients) at 800 mg, iv administered as single dose by gas liquid chromatographic method; type: ADME, organism-based; settings: human, in vivo
[16] = AUC (0 to 48 hrs) in epileptic patient (6 patients) at 800 mg, po administered as single dose by gas liquid chromatographic method; type: ADME, organism-based; parameters: dose 800 mg, time < 48 hr, route oral; settings: human, in vivo
[17] = Half life in epileptic patient (6 patients) at 800 mg, po administered as single dose by gas liquid chromatographic method; type: ADME, organism-based; settings: human, in vivo
[18] = Elimination rate constant in epileptic patient (6 patients) at 800 mg, po administered as single dose by gas liquid chromatographic method; type: ADME, organism-based; settings: human, in vivo
[19] = Cmax in epileptic patient (6 patients) at 800 mg, po administered as single dose by gas liquid chromatographic method; type: ADME, organism-based; parameters: dose 800 mg, route oral; settings: human, in vivo
[20] = Apparent volume of distribution in healthy volunteer (6 volunteers) at 800 mg, iv administered as single dose by gas liquid chromatographic method; type: ADME, organism-based; settings: human, in vivo, read-out: Vd(app)
[21] = Volume of distribution (area) in epileptic patient (6 patients) at 800 mg, iv administered as single dose by gas liquid chromatographic method; type: ADME, organism-based; settings: human, in vivo
Homo sapiens [22] = test: Toxicity in epileptic patient (6 patients) at 800 mg, po and iv administered as single dose by gas liquid chromatographic method; type: organism-based; settings: in vivo
[23] = Half life in epileptic patient (6 patients) at 800 mg, iv administered as single dose by gas liquid chromatographic method; type: ADME, organism-based; settings: human, in vivo
[24] = Elimination rate constant in healthy volunteer (6 volunteers) at 800 mg, iv administered as single dose by gas liquid chromatographic method; type: ADME, organism-based; settings: human, in vivo
[25] = Total clearance in healthy volunteer (6 volunteers) at 800 mg, iv administered as single dose by gas liquid chromatographic method; type: ADME, organism-based; settings: human, in vivo

## CCCC(CCC)C(=O)[O-].[Na+] [VALPROATE SODIUM]
[1]
  AUC(0-inf): 807 µg·h/mL
[2]
  C0: 58.5 µg/mL
[3]
  Vd: 0.175 L/kg
[4]
  Vd: 10 L
[5]
  clearance: 16.7 mL/min
[6]
  Tmax: 1.2 h
[7]
  AUC(0-inf): 771 µg·h/mL
Homo sapiens [8]
  Vd: 12.9 L
[9]
  half-life: 12.8 h
Homo sapiens [10]
  Vd: 13.1 L
[11]
  AUC(0-t) at 48 h: 785 µg·h/mL
[12]
  k el: 2.21e-05 s⁻¹
[13]
  Tmax: 1.8 h
[14]
  bioavailability: 96%
[15]
  Vd: 13.8 L
[16]
  AUC(0-t) at 48 h: 749 µg·h/mL
[17]
  half-life: 9 h
[18]
  k el: 2.17e-05 s⁻¹
[19]
  Cmax: 71.8 µg/mL
[20]
  Vd: 0.147 L/kg
[21]
  Vd: 12.8 L
Homo sapiens [22]
  Activity: Non-toxic
[23]
  half-life: 9 h
[24]
  k el: 1.52e-05 s⁻¹
[25]
  clearance: 9 mL/min

Reference: ChEMBL document CHEMBL3784958, “Disposition of sodium valproate in epileptic patients” (Br J Clin Pharmacol, 1978)
